The target of one assay is T1, human cloned 5-HT6 receptors (Homo sapiens, UniProt P50406).
T1 construct: expressed in transfected cells; host or cells: Hela cells
T1 sequence (P50406 whole entry): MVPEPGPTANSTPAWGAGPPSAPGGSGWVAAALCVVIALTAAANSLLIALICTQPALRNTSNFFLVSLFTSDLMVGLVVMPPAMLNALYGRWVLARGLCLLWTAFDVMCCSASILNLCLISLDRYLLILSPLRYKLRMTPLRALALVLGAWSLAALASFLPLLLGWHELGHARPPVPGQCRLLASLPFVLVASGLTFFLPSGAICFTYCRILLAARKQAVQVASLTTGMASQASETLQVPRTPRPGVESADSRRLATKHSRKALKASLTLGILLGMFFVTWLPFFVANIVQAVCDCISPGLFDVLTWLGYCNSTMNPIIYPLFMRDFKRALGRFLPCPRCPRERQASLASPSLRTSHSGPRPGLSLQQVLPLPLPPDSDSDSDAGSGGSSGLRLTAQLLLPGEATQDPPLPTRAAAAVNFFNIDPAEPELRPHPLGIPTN
The assay can be described thus: 5-HT6 binding affinity, [3H]-LSD displacement in membranes of Hela cells.
Details: not given
On to `CC(=NNC(=N)N)c1cn(S(C)(=O)=O)c2cc(F)ccc12` [Example 100, 2-{1-[6-fluoro-1-(methylsulfonyl)-1H-indol-3-yl]ethylidene}hydrazinecarboximidamide], for which the affinity corresponds to a Ki of 0.018 µM.
On to `CCC(=NNC(=N)N)c1cn(S(=O)(=O)c2ccccc2)c2ccc(F)cc12` [Example 118, 2-{1-[5-fluoro-1-(phenylsulfonyl)-1H-indol-3-yl]propylidene}hydrazinecarboximidamide], for which the Ki (usually the equilibrium dissociation constant of an inhibitor or competing ligand from its target) came out at 0.007 µM.
Turning to `CCC(=NNC(=N)N)c1cn(S(=O)(=O)c2ccc(N)cc2)c2ccc(F)cc12` [Example 119, 2-(1-{1-[(4-aminophenyl)sulfonyl]-5-fluoro-1H-indol-3-yl}propylidene)hydrazinecarboximidamide], the affinity corresponds to a Ki of 0.002 µM.
Still for that read-out and setting: for `CCC(=NNC(=N)N)c1cn(S(=O)(=O)c2ccc3ccccc3c2)c2ccc(F)cc12` [Example 120, 2-{1-[5-fluoro-1-(2-naphthylsulfonyl)-1H-indol-3-yl]propylidene}hydrazinecarboximidamide] the value was 0.085 µM; for `CCC(=NNC(=N)N)c1cn(S(=O)(=O)c2ccc(N)cc2)c2ccc(Cl)cc12` [Example 121, 2-(1-{1-[(4-aminophenyl)sulfonyl]-5-chloro-1H-indol-3-yl}propylidene)hydrazinecarboximidamide], 0.009 µM; for `CCC(=NNC(=N)N)c1cn(S(=O)(=O)c2ccc3ccccc3c2)c2ccc(Cl)cc12` [Example 122, 2-{1-[5-chloro-1-(2-naphthylsulfonyl)-1H-indol-3-yl]propylidene}hydrazinecarboximidamide], 0.101 µM.
The compound `CCCCCNC(=N)NN=C(C)c1cn(S(=O)(=O)c2ccccc2)c2ccccc12` [Example 123, N-Pentyl-2-{1-[1-(phenylsulfonyl)-1H-indol-3-yl]ethylidene}-hydrazinecarboximidamide] yielded a Ki of 0.012 µM.

The same assay, now with this note: test compound dose 10 nM; [3H]-LSD 3.0 nM.
On to `CS(=O)(=O)n1cc(C(=NNC(=N)N)C2CC2)c2ccc(F)cc21` [Example 102, 2-{cyclopropyl[6-fluoro-1-(methylsulfonyl)-1H-indol-3-yl]methylidene}hydrazinecarboximidamide], for which the inhibition – broadly, the relative decrease from the control value, in per cent – at 0.01 µM was determined as 41.1%.

The assay is the same for the next values; noted with them: test compound dose 100 nM; [3H]-LSD 3.0 nM.
Turning to `CC(=NNC(=N)N)c1cn(S(=O)(=O)c2ccccc2)c2ccc(Cl)cc12` [Example 84, 2-{1-[5-chloro-1-(phenylsulfonyl)-1H-indol-3-yl]ethylidene}hydrazinecarboximidamide], the inhibition at 0.1 µM was 81.7%.
The same measure, in the same setting: for `CCCCC(=NNC(=N)N)c1cn(S(=O)(=O)c2ccccc2)c2ccc(Cl)cc12` [Example 85, 2-{1-[5-chloro-1-(phenylsulfonyl)-1H-indol-3-yl]pentylidene}hydrazinecarboximidamide] the value was 57.5%; for `N=C(N)NN=C(c1cn(S(=O)(=O)c2ccccc2)c2ccc(Cl)cc12)C1CC1` [Example 86, 2-[[5-chloro-1-(phenylsulfonyl)-1H-indol-3-yl](cyclopropyl)methylidene]hydrazinecarboximidamide], 78.1%; for `COc1ccc(S(=O)(=O)n2cc(C(=NNC(=N)N)C3CC3)c3cc(Cl)ccc32)cc1OC` [Example 89, 2-[{5-chloro-1-[(3,4-dimethoxyphenyl)sulfonyl]-1H-indol-3-yl}(cyclopropyl)-methylidene]hydrazinecarboximidamide], 71.9%.
`CC(=NNC(=N)N)c1cn(S(C)(=O)=O)c2cc(F)ccc12` [Example 100, 2-{1-[6-fluoro-1-(methylsulfonyl)-1H-indol-3-yl]ethylidene}hydrazinecarboximidamide] showed an inhibition at 0.1 µM of 83.8%.
As to `CCCCS(=O)(=O)n1cc(C(C)=NNC(=N)N)c2ccc(F)cc21` [Example 103, 2-{1-[1-(butylsulfonyl)-6-fluoro-1H-indol-3-yl]ethylidene}hydrazinecarboximidamide], the inhibition at 0.1 µM stood at 69.4%.
Still for that read-out and setting: for `CCCCS(=O)(=O)n1cc(C(=NNC(=N)N)C2CC2)c2ccc(F)cc21` [Example 105, 2-[[1-(butylsulfonyl)-6-fluoro-1H-indol-3-yl](cyclopropyl)methylidene]hydrazinecarboximidamide] the value was 58.4%; for `N=C(N)NN=C(c1cn(S(=O)(=O)c2ccc3ccccc3c2)c2cc(F)ccc12)C1CC1` [Example 111, 2-{cyclopropyl[6-fluoro-1-(2-naphthylsulfonyl)-1H-indol-3-yl]methylidene}hydrazinecarboximidamide], 27.6%; for `N=C(N)NN=C(c1cn(S(=O)(=O)c2ccccc2)c2cc(F)ccc12)C1CC1` [Example 114, 2-{cyclopropyl[6-fluoro-1-(phenylsulfonyl)-1H-indol-3-yl]methylidene}hydrazinecarboximidamide], 85.2%.
On the same count and under the same terms, the result for `COc1ccc(S(=O)(=O)n2cc(C(=NNC(=N)N)C3CC3)c3ccc(F)cc32)cc1OC` [Example 117, 2-(cyclopropyl{1-[(3,4-dimethoxyphenyl)sulfonyl]-6-fluoro-1H-indol-3-yl}methylidene)hydrazinecarboximidamide] reads 78.2%; that for `CCCCCNC(=N)NN=C(C)c1cn(S(=O)(=O)c2ccccc2)c2ccccc12` [Example 123, N-Pentyl-2-{1-[1-(phenylsulfonyl)-1H-indol-3-yl]ethylidene}-hydrazinecarboximidamide], 34%; that for `CCCNC(=N)NN=C(C)c1cn(S(=O)(=O)c2ccccc2)c2ccccc12` [Example 124, 2-{1-[1-(phenylsulfonyl)-1H-indol-3-yl]ethylidene}-N-propylhydrazinecarboximidamide], 75.2%.

Still in this assay, the particulars now being: test compound dose 1000 nM; [3H]-LSD 3.0 nM; read-out: % Inhibition.
As to `COc1ccc(S(=O)(=O)n2cc(C(C)=NNC(=N)N)c3cc(Cl)ccc32)cc1OC` [Example 87, 2-(1-{5-chloro-1-[(3,4-dimethoxyphenyl)sulfonyl]-1H-indol-3-yl}ethylidene)hydrazinecarboximidamide], the inhibition at 1 µM is 88.9%.
With `CCCCC(=NNC(=N)N)c1cn(S(=O)(=O)c2ccc(OC)c(OC)c2)c2ccc(Cl)cc12` [Example 88, 2-(1-{5-chloro-1-[(3,4-dimethoxyphenyl)sulfonyl]-1H-indol-3-yl}pentylidene)hydrazinecarboximidamide], the inhibition at 1 µM amounted to 65.6%.
As to `CC(=NNC(=N)N)c1c(-c2ccc(Cl)cc2)n(S(C)(=O)=O)c2ccccc12` [Example 90, 2-{1-[2-(4-chlorophenyl)-1-(methylsulfonyl)-1H-indol-3-yl]ethylidene}hydrazinecarboximidamide], the inhibition at 1 µM was 63.5%.
As for `CCCCC(=NNC(=N)N)c1c(-c2ccc(Cl)cc2)n(S(C)(=O)=O)c2ccccc12` [Example 91, 2-{1-[2-(4-chlorophenyl)-1-(methylsulfonyl)-1H-indol-3-yl]pentylidene}hydrazinecarboximidamide], the inhibition at 1 µM came out at 9%.
As for `N=C(N)NN=C(c1c(-c2ccc(Cl)cc2)n(S(=O)(=O)c2ccc3ccccc3c2)c2ccccc12)C1CC1` [Example 94, 2-[[2-(4-chlorophenyl)-1-(2-naphthylsulfonyl)-1H-indol-3-yl](cyclopropyl)methylidene]hydrazinecarboximidamide], the inhibition at 1 µM was found to be 27.9%.
In the case of `CC(=NNC(=N)N)c1c(-c2ccc(Cl)cc2)n(S(=O)(=O)c2ccccc2)c2ccccc12` [Example 95, 2-{1-[2-(4-chlorophenyl)-1-(phenylsulfonyl)-1H-indol-3-yl]ethylidene}hydrazinecarboximidamide], the inhibition at 1 µM was determined as 89.6%.
In the case of `CCCCC(=NNC(=N)N)c1c(-c2ccc(Cl)cc2)n(S(=O)(=O)c2ccccc2)c2ccccc12` [Example 96, 2-{1-[2-(4-chlorophenyl)-1-(phenylsulfonyl)-1H-indol-3-yl]pentylidene}hydrazinecarboximidamide], the inhibition at 1 µM is 20%.
For the compound `COc1ccc(S(=O)(=O)n2c(-c3ccc(Cl)cc3)c(C(C)=NNC(=N)N)c3ccccc32)cc1OC` [Example 98, 2-(1-{2-(4-chlorophenyl)-1-[(3,4-dimethoxyphenyl)sulfonyl]-1H-indol-3-yl}ethylidene)hydrazinecarboximidamide], the inhibition at 1 µM is 53.3%.
With `CCCCC(=NNC(=N)N)c1cn(S(C)(=O)=O)c2cc(F)ccc12` [Example 101, 2-{1-[6-fluoro-1-(methylsulfonyl)-1H-indol-3-yl]pentylidene}hydrazinecarboximidamide], the inhibition at 1 µM stood at 77.4%.
With `CCCCC(=NNC(=N)N)c1cn(S(=O)(=O)CCCC)c2cc(F)ccc12` [Example 104, 2-{1-[1-(butylsulfonyl)-6-fluoro-1H-indol-3-yl]pentylidene}hydrazinecarboximidamide], the inhibition at 1 µM was determined as 81.3%.
In the case of `COc1ccc(S(=O)(=O)n2cc(C(C)=NNC(=N)N)c3ccc(F)cc32)cc1` [Example 106, 2-(1-{6-fluoro-1-[(4-methoxyphenyl)sulfonyl]-1H-indol-3-yl}ethylidene)hydrazinecarboximidamide], the inhibition at 1 µM was found to be 64.4%.
Same read-out and setting: the result for `CCCCC(=NNC(=N)N)c1cn(S(=O)(=O)c2ccc(OC)cc2)c2cc(F)ccc12` [Example 107, 2-(1-{6-fluoro-1-[(4-methoxyphenyl)sulfonyl]-1H-indol-3-yl}pentylidene)hydrazinecarboximidamide] reads 61.5%; that for `CC(=NNC(=N)N)c1cn(S(=O)(=O)c2ccc3ccccc3c2)c2cc(F)ccc12` [Example 109, 2-{1-[6-fluoro-1-(2-naphthylsulfonyl)-1H-indol-3-yl]ethylidene}hydrazinecarboximidamide], 67.8%.
In the case of `CCCCC(=NNC(=N)N)c1cn(S(=O)(=O)c2ccc3ccccc3c2)c2cc(F)ccc12` [Example 110, 2-{1-[6-fluoro-1-(2-naphthylsulfonyl)-1H-indol-3-yl]pentylidene}hydrazinecarboximidamide], the inhibition at 1 µM is 60.2%.
Turning to `CC(=NNC(=N)N)c1cn(S(=O)(=O)c2ccccc2)c2cc(F)ccc12` [Example 112, 2-{1-[6-fluoro-1-(phenylsulfonyl)-1H-indol-3-yl]ethylidene}hydrazinecarboximidamide], the inhibition at 1 µM was 94.6%.
Consider `COc1ccc(S(=O)(=O)n2cc(C(C)=NNC(=N)N)c3ccc(F)cc32)cc1OC` [Example 115, 2-(1-{1-[(3,4-dimethoxyphenyl)sulfonyl]-6-fluoro-1H-indol-3-yl}ethylidene)hydrazinecarboximidamide], for which the inhibition at 1 µM was 89.2%.
On to `CCCCC(=NNC(=N)N)c1cn(S(=O)(=O)c2ccc(OC)c(OC)c2)c2cc(F)ccc12` [Example 116, 2-(1-{1-[(3,4-dimethoxyphenyl)sulfonyl]-6-fluoro-1H-indol-3-yl}pentylidene)hydrazinecarboximidamide], for which the inhibition at 1 µM is 73.5%.

Source of the values: patent publication US6906095B2, “Indolylalkylidenehydrazine-carboximidamide derivatives as 5-hydroxytryptamine-6 ligands” (Wyeth, priority 2002, dated 2005).
